Data taken from US20130052162A1, “BOOSTING IMMUNE DEFENSE BY UPREGULATING CCAAT/ENHANCER BINDING PROTEIN EPSILON” (CEDARS-SINAI MEDICAL CENTER, priority 2010, published 2013).
Where “and” joins values, the source holds several entries; their conditions need not be identical. Equal entries are not always repeated. Entries after “also recorded” stand apart in the source; their conditions may differ.

Legend:
S. aureus [1] = experiment: Murine peripheral whole blood killing assay; type: cell-based, mouse
CEBPE promoter region [2] = experiment: ChIP: histone H3 acetylation at CEBPE promoter in BMDM; type: cell-based, mouse; conditions: WT BMDM, 1 mM NAM, 6-12 h, vs untreated, densitometry
Procedure: (§1) ChIP assay kit (Upstate Biotechnology, Lake Placid, N.Y.) was used, and chromatin was prepared for IP as instructed by the manufacturer. The sonicated chromatin was immunoprecipitated with either 5 μg of anti-acetylated histone H3 antibody or normal rabbit IgG antibody as negative control (Upstate Biotechnology). Immunoprecipitated DNA was subsequently analyzed by PCR using primers specific for the CEBPE promoter region; input chromatin was analyzed for β-actin mRNA as a positive control. The optimal reaction conditions for PCR were determined for each primer pair. Primers were denatured at 95° C. for 1 min and annealed at 60° C. for 1 min, followed by elongation at 72° C. for 1 min; each product was amplified 35 cycles. PCR products were analyzed by 2.5% agarose/ethidium bromide gel electrophoresis. […] The primers used for ChIP analysis were: human CEBPE 5′-GCTTTGGCCAAGCCCAGGGA-3′ (forward) (SEQ ID NO: 9), 5′-TGCTGGGCTCCACCTACCCC-3′ (reverse) (SEQ ID NO: 10); human β-actin: 5′-CTCCTCGGGAGCCACACGCA-3′ (forward) (SEQ ID NO: 1), 5′-TAGGGGAGCTGGCTGGGTGG-3′ (reverse) (SEQ ID NO: 12); murine CEBPE: 5′-TGAGGCTGCAGCTTGCCTGG-3′ (forward) (SEQ ID NO: 13), 5′-ACCAAGCTACCCCTGGCCCT-3′ (reverse) (SEQ ID NO: 14), murine β-actin: 5′-ACCTGTTACTTTGGGAGTGGCAAGC-3′ (forward) (SEQ ID NO: 15), 5′-GTCGTCCCAGTTGCTAACAATGCC-3′ (reverse) (SEQ ID NO: 16).

[3] = Ex vivo hematological study (CBC) of human donor blood; type: cell-based; conditions: 1 mM NAM ex vivo
Procedure: Blood from human donors (no antibiotics within the prior 2 weeks, no immune-boosting supplements, and otherwise healthy) was collected in ETDA tubes. CBC was performed on each blood sample at time zero. Each blood sample was then treated ex vivo with NAM (1 mM) or PBS (control) for 24 h in 6-well non-treated plates at 37 C, 5% CO2 and 95%% humidity with gentle rocking. After 24 h of treatment, CBCs were performed on each blood sample. […] (Table 3)

LF-promoter = experiment: LF reporter gene (LAC-LUC) luciferase assay in U937 cells; type: cell-based, human; conditions: 1 mM NAM, 16 h, vs PBS
Procedure: The inventors designed a −230 LF promoter reporter plasmid (LAC-LUC) including a C/EBP-binding site as previously described^15. For the reporter gene assay, 2×10^6 […] cells were transiently transfected either with 2 μg of the LAC-LUC luciferase reporter gene constructs or the empty-vector control (pGL3, Promega, Madison, Wis., USA), as well as 0.2 μg of Renilla luciferase (pRL-SV40). Transfections were performed using the nucleofection technique with the Amaxa-Kit (Invitrogen, Karlsruhe, Germany) according to the manufacturer's instructions. After 16 h of transfection, the cells were treated with NAM (1 mM) for an additional 16 h. The lysates were harvested and luciferase activity measured by the Dual-Luciferase reporter assay system (Promega, Madison, Wis., USA). For all transfection studies, luciferase activity was normalized using pRL-SV40 activity. Results represent the mean of three independent experiments performed in triplicate.

P. aeruginosa = experiment: Human peripheral whole blood killing assay, P. aeruginosa; type: cell-based; conditions: NAM-pretreated human blood
Procedure: This well described phagocytic survival assay has been previously reported^42. Bacteria was pelleted, washed twice, diluted to the specified inoculum in 25 μl PBS (without Ca^2+ and Mg^2+), and immediately mixed with 75 μl of freshly drawn human or murine peripheral whole blood in sterile heparinized 2 mL round-bottom Eppendorf tubes. When required, murine plasma was obtained by centrifugation of heparinized whole blood at 2000×g for 15 min at RT. Reactions (performed in minimum in triplicate) were incubated at 37° C. for 1-3 h on a rotary shaker, at which time ten-fold serial dilutions were plated on THA for enumeration of surviving CFU.
When required, freshly drawn human or murine peripheral blood was pretreated with NAM (˜0.1 mM or ˜10 mM) or PBS (without Ca^2+ and Mg^2+), prior to inoculation with bacteria.
Participants in the inventors' study included 15 healthy humans with a negative history of infection or antibiotic treatments in the prior 4 weeks. Peripheral blood was collected from individuals in a fasting condition. Polymorph-prep (Axis-Shield, Oslo, Norway) was used for the isolation of PMNs according to the manufacturer's protocol.

CEBPE promoter region [4] = experiment: ChIP: histone H3 acetylation at CEBPE promoter in BMMC; type: cell-based, mouse; conditions: WT BMMC, 1 mM NAM, 12 h, vs untreated
Procedure: as §1

CEBPE promoter region [5] = experiment: ChIP: histone H3 acetylation at CEBPE promoter in human PMNs from NAM-treated blood; type: cell-based; conditions: blood treated with 1 mM NAM, 12 h
Procedure: as §1, with “16). […]” for “16).”

S. aureus [6] = experiment: Human peripheral whole blood killing assay, S. aureus; type: cell-based
[7] = CBC of peripheral whole blood of WT mice treated in vivo with NAM; set-up: species or system mouse
Procedure: WT mice treated in vivo with NAM (250 mg/kg/day; i.p.) or PBS (control) for a) 24 h, b) 48 h, and c) 72 h. Then, peripheral whole blood was removed from each of the mice and CBCs were performed. […] (Table 2A-C)

[8] = t = 24 h, individual human donors #1-5
[9] = 24 h post-treatment, 250 mg/kg/d, individual mice, 250 mg/kg/day

Structure (SMILES): NC(=O)c1cccnc1 [NAM, Nicotinamide]
- CFU recovered, NAM- vs PBS-treated blood (S. aureus [1]; C/EBPε−/− blood, 1 mM NAM 24 h, 1 h and 3 h of infection): no impact; also recorded: not statistically different
- CFU recovered, NAM- vs PBS-treated blood (S. aureus [1]; WT blood, 1 mM NAM 24 h, 1 h and 3 h of infection): Significantly less CFU
- enhanced killing of S. aureus vs PBS (S. aureus [1]; WT blood, 1 mM NAM pretreatment 24 h): more than 3 log10
- CFU recovered, NAM- vs PBS-treated blood (S. aureus [1]; WT blood, 1 mM NAM pretreatment for only 4 h): did not result in CFU differences
- increase in histone H3 acetylation at the CEBPE promoter (CEBPE promoter region [2]): 5 fold
- CBCs, NAM- vs PBS-treated and untreated blood ([3]; 24 h): No differences in CBCs
- ABS MONOS [3, 8]: 0.6 1000/UL and 0.5 1000/UL and 0.2 1000/UL and 0.1 1000/UL (2×)
- ABS POLYS [3, 8]: 5.4 1000/UL and 2.9 1000/UL and 5.2 1000/UL and 4.2 1000/UL and 4.3 1000/UL
- MONOS [3, 8]: 7% and 9% and 4% and 2% (2×)
- POLYS [3, 8]: 61% and 51% and 76% and 63% and 70%
- WBC COUNT [3, 8]: 8.9 1000/UL and 5.6 1000/UL and 6.9 1000/UL and 6.7 1000/UL and 6.1 1000/UL
- increase in LF reporter gene activity (LF-promoter): 2.5 fold
- P. aeruginosa CFU recovered / outcome, NAM- vs PBS-treated blood (P. aeruginosa): improved the outcome of infection; also recorded: enhances clearance
- increase in histone acetylation at the CEBPE promoter (CEBPE promoter region [4]): 3 fold
- increase in histone H3 acetylation at the CEBPE promoter (CEBPE promoter region [5]): 5 fold
- CFU recovered, NAM- vs PBS-treated blood (S. aureus [6]; NAM 1 mM or 10 mM 24 h, 1 h and 3 h of infection): Significantly less CFU
- reduction of S. aureus survival in whole blood vs PBS (S. aureus [6]; NAM 1 mM or 10 mM 24 h pretreatment, 3 h p.i.): 2-3 log10
- Hematological Abnormalities ([7]; 24 h post-treatment, 250 mg/kg/d, individual mice): Normal
- LY [7, 9]: 3.97 K/uL and 1.89 K/uL and 3.84 K/uL and 76.92% and 67.88% and 71.36%
- MO [7, 9]: 0.18 K/uL and 0.28 K/uL and 3.77% and 6.47% and 5.28%
- NE [7, 9]: 0.95 K/uL and 0.65 K/uL and 1.00 K/uL and 18.47% and 23.40% and 18.67%
- WBC [7, 9]: 5.16 K/uL and 2.78 K/uL and 5.38 K/uL
- WBC, Mean ([7]; 24 h post-treatment, 250 mg/kg/d, mean of 10 mice): 3.63 K/uL
- Hematological Abnormalities ([7]; 48 h post-treatment, 250 mg/kg/d, individual mice): Normal
- WBC ([7]; 48 h post-treatment, 250 mg/kg/d, individual mice, 250 mg/kg/day): 6.34 K/uL and 1.86 K/uL and 3.30 K/uL and 4.64 K/uL and 2.70 K/uL
- WBC, Mean ([7]; 48 h post-treatment, 250 mg/kg/d, mean of 5 mice): 3.77 K/uL
- Hematological Abnormalities ([7]; 72 h post-treatment, 250 mg/kg/d, individual mice): Normal
- WBC ([7]; 72 h post-treatment, 250 mg/kg/d, individual mice, 250 mg/kg/day): 2.20 K/uL and 4.08 K/uL and 5.66 K/uL and 2.24 K/uL and 3.62 K/uL and 6.22 K/uL and 3.06 K/uL and 5.48 K/uL
- WBC, Mean ([7]; 72 h post-treatment, 250 mg/kg/d, mean of 8 mice): 4.07 K/uL
- CBCs, NAM- vs PBS-treated mice ([7]; mouse, in vivo): No differences in CBCs
